Paper PMC9458058, “Synthesis of N-Substituted Iminosugar C-Glycosides and Evaluation as Promising α-Glucosidase Inhibitors” (Molecules, 2022)
Where two headings read alike, the source gives them in different places.

Key:
α-glucosidase from yeast = α-glucosidase from yeast (Saccharomyces cerevisiae, UniProt P53341); test: biochemical; type: biochemical; settings: for inhibition of α-glucosidase, in words: Figure 3, 1 µg/mL, relative to lead compound 4 / Acarbose; for inhibition potency compared with compound 5λ, in words: Table 2
Chain of α-glucosidase from yeast (P53341 whole entry): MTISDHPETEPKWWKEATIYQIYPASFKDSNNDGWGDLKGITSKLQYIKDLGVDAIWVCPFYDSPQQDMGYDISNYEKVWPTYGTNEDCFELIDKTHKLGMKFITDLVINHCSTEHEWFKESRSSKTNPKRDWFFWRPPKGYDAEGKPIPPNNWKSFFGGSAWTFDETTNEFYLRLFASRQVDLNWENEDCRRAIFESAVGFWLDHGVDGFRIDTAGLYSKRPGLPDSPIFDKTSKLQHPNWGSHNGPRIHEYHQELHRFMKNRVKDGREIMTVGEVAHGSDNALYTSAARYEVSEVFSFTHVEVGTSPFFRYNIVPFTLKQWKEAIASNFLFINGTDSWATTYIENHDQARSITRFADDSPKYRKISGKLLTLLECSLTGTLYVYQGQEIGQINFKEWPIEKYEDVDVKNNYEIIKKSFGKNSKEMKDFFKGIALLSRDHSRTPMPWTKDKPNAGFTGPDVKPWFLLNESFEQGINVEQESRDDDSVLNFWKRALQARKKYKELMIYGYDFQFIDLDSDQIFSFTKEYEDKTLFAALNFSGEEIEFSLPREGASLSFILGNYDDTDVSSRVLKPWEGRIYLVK
Experimental: The inhibitory potency of the synthesized N-substituted iminosugar C-glycosides 5 was assessed by testing the compounds in assays for the α-glucosidase from yeast. […] Alternatively, N atom was modified with various benzaldehydes, giving a library of iminosugar C-glycosides containing phenyl.
The extracts of each sample were dissolved in distilled water to prepare a certain concentration. 150 µL of the sample solution was mixed with 150 µL of maltose solution (prepared with 0.2 M, pH = 6.8 phosphate buffer) at a certain concentration, and cultured at 37 °C for 10 min. Then 150 µL of the enzyme solution at a certain concentration was added and mixed. The reaction was carried out at 37 °C for 60 min. The reaction was terminated in a boiling water bath for 10 min and centrifuged at 3000 r/min for 10 min. The supernatant was taken to determine the content of glucose with Glu kit. […] Enzyme activity inhibition rate (%) = (negative-sample)/(negative-blank) × 100%.

α-glucosidase = α-glucosidase (Saccharomyces cerevisiae, UniProt P53341); test: Enzyme kinetics experiment (ultrafiltration recovery, Lineweaver-Burk plots); type: biochemical
Chain of α-glucosidase (P53341 whole entry): as above
Description: To determine which mechanism 6e belonged to, we removed the unreacted inhibitor from the enzyme solution by ultrafiltration, and examined whether the activity would be recovered or not by the method described in the literatures. When an enzyme solution containing 6e was subjected to ultrafiltration and then redissolved with the same concentration, the α-glucosidase activity was substantially recovered (Figure 5A).
Further analysis of the compound 6e, in order to reveal the type of enzyme inhibition on α-glucosidase, was done with different substrate concentration.
Enzyme kinetics experiment: The principle of the experimental method is the same as that of the above method, in which the micro-membrane centrifuge tube with a pore diameter of 3K is used for small molecule centrifugal separation. In the enzyme kinetics experiment, the concentration of enzyme was set at a fixed concentration, and five concentration gradients were designed for the solution of substrate maltose. The linear relationship was plotted using the obtained results combined with the Michaelis-Menten equation.

[1] = read-out: IC50 against α-glucosidase from yeast

Compound: CC(=O)CC1C(O)C(O)C(O)CN1Cc1cccc(F)c1 [Compound 5z, (1R, 2S, 3R, 4R)-1-Acetylmethyl-2,3,4-trihydroxyl-N-3-fluorobenzylpiperidine]
- inhibition of α-glucosidase, in words (α-glucosidase from yeast): doesn’t show any significant improvement

Compound: CC(=O)CC1C(O)C(O)C(O)CN1Cc1ccc(Cl)cc1 [Compound 5q, (1R, 2S, 3R, 4R)-1-Acetylmethyl-2,3,4-trihydroxyl-N-4-chlorobenzylpiperidine]
- inhibition of α-glucosidase, in words (α-glucosidase from yeast): doesn’t show any significant improvement

Compound: CC(=O)CC1C(O)C(O)C(O)CN1Cc1ccccc1F [Compound 5y, (1R, 2S, 3R, 4R)-1-Acetylmethyl-2,3,4-trihydroxyl-N-2-fluorobenzylpiperidine]
- inhibition of α-glucosidase, in words (α-glucosidase from yeast): doesn’t show any significant improvement

Compound: COc1cccc(CN2C[C@@H](O)[C@@H](O)[C@@H](O)[C@H]2CC(C)=O)c1 [Compound 5p, (1R, 2S, 3R, 4R)-1-Acetylmethyl-2,3,4-trihydroxyl-N-3-methoxylbenzylpiperidine]
- inhibition of α-glucosidase, in words (α-glucosidase from yeast): The same result was obtained

Compound: COc1ccc(CN2C[C@@H](O)[C@@H](O)[C@@H](O)[C@H]2CC(C)=O)cc1O [Compound 6h, (1R, 2S, 3R, 4R)-1-Acetylmethyl-2,3,4-trihydroxyl-N-3-hydroxyl-4-methoxylbenzylpiperidine]
- IC50 (α-glucosidase from yeast): > 20 µM

Compound: CC(=O)CC1C(O)C(O)C(O)CN1Cc1ccc(Br)cc1 [Compound 5u, (1R, 2S, 3R, 4R)-1-Acetylmethyl-2,3,4-trihydroxyl-N-4-bromobenzylpiperidine]
- inhibition of α-glucosidase, in words (α-glucosidase from yeast): doesn’t show any significant improvement

Compound: COc1cc(CN2C[C@@H](O)[C@@H](O)[C@@H](O)[C@H]2CC(C)=O)ccc1O [Compound 6f, (1R, 2S, 3R, 4R)-1-Acetylmethyl-2,3,4-trihydroxyl-N-4-hydroxyl-methoxylbenzylpiperidine]
- IC50 (α-glucosidase from yeast): > 20 µM
- inhibition potency compared with compound 5λ, in words (α-glucosidase from yeast): severely diminishes the inhibition

Compound: CC(=O)C[C@H]1NC[C@@H](O)[C@@H](O)[C@H]1O [Compound 4, 1-C-Acetylmethyl-5-deoxy-5-amino-α-D-ribopyranoside]
- IC50 (α-glucosidase from yeast): > 20 µM
- inhibition of α-glucosidase, in words (α-glucosidase from yeast): weak inhibitory activity

Compound: CC(=O)CC1C(O)C(O)C(O)CN1Cc1ccccc1Cl [Compound 5r, (1R, 2S, 3R, 4R)-1-Acetylmethyl-2,3,4-trihydroxyl-N-2-chlorobenzylpiperidine]
- IC50 (α-glucosidase from yeast): 12 µM
- inhibition of α-glucosidase, in words (α-glucosidase from yeast): enhanced the enzyme inhibition

Compound: CC(=O)CC1C(O)C(O)C(O)CN1Cc1ccc(C#N)cc1 [Compound 5m, (1R, 2S, 3R, 4R)-1-Acetylmethyl-2,3,4-trihydroxyl-N-4-cyanobenzylpiperidine]
- inhibition of α-glucosidase, in words (α-glucosidase from yeast): The same result was obtained

Compound: CC(=O)CC1C(O)C(O)C(O)CN1Cc1cccc(Cl)c1 [Compound 5t, (1R, 2S, 3R, 4R)-1-Acetylmethyl-2,3,4-trihydroxyl-N-3-chlorobenzylpiperidine]
- inhibition of α-glucosidase, in words (α-glucosidase from yeast): doesn’t show any significant improvement

Compound: CC(=O)C[C@@H]1[C@H](O)[C@H](O)[C@H](O)CN1Cc1c(Cl)cc(O)cc1Cl [Compound 6e, (1R, 2S, 3R, 4R)-1-Acetylmethyl-2,3,4-trihydroxyl-N-2,6-dichloro-4-hydroxylbenzylpiperidine]
- inhibition compared with positive control Acarbose, in words (α-glucosidase from yeast): stronger inhibitory potency than positive control Acarbose
- inhibitory potency relative to positive control Acarbose (α-glucosidase from yeast): 2 fold
- IC50 (α-glucosidase from yeast; [1]): 0.9 µM
- type of enzyme inhibition (α-glucosidase; Lineweaver-Burk plots): uncompetitive inhibitor
- Ki (α-glucosidase; Lineweaver-Burk plots, different substrate concentration): 8.6 µM
- reversibility of inhibition (α-glucosidase; enzyme activity after removal of inhibitor by ultrafiltration): reversible inhibitor

Compound: CC(=O)C[C@@H]1[C@H](O)[C@H](O)[C@H](O)CN1Cc1ccc(O)c(Cl)c1 [Compound 6a, (1R, 2S, 3R, 4R)-1-Acetylmethyl-2,3,4-trihydroxyl-N-3-chloro-4-hydroxylbenzylpiperidine]
- inhibition potency compared with compound 5λ, in words (α-glucosidase from yeast): slightly improve the inhibition potency
- IC50 (α-glucosidase from yeast; [1]): 5.6 µM

Compound: CCOc1cc(CN2C[C@@H](O)[C@@H](O)[C@@H](O)[C@H]2CC(C)=O)ccc1O [Compound 6g, (1R, 2S, 3R, 4R)-1-Acetylmethyl-2,3,4-trihydroxyl-N-3-ethyoxyl-4-hydroxylbenzylpiperidine]
- IC50 (α-glucosidase from yeast): > 20 µM
- inhibition potency compared with compound 5λ, in words (α-glucosidase from yeast): severely diminishes the inhibition

Compound: CC(=O)CC1C(O)C(O)C(O)CN1Cc1ccccc1Br [Compound 5v, (1R, 2S, 3R, 4R)-1-Acetylmethyl-2,3,4-trihydroxyl-N-2-bromobenzylpiperidine]
- inhibition of α-glucosidase, in words (α-glucosidase from yeast): enhanced the enzyme inhibition

Compound: CC(=O)CC1C(O)C(O)C(O)CN1Cc1ccccc1O [Compound 5θ, (1R, 2S, 3R, 4R)-1-Acetylmethyl-2,3,4-trihydroxyl-N-2-hydroxylbenzylpiperidine]
- IC50 (α-glucosidase from yeast): > 20 µM
- inhibition of α-glucosidase, in words (α-glucosidase from yeast): reduced the inhibitory potency significantly

Compound: CC(=O)CC1C(O)C(O)C(O)CN1Cc1cccc(Br)c1 [Compound 5w, (1R, 2S, 3R, 4R)-1-Acetylmethyl-2,3,4-trihydroxyl-N-3-bromobenzylpiperidine]
- inhibition of α-glucosidase, in words (α-glucosidase from yeast): doesn’t show any significant improvement

Compound: CC(=O)CC1C(O)C(O)C(O)CN1Cc1ccc(F)cc1 [Compound 5x, (1R, 2S, 3R, 4R)-1-Acetylmethyl-2,3,4-trihydroxyl-N-4-fluorobenzylpiperidine]
- inhibition of α-glucosidase, in words (α-glucosidase from yeast): doesn’t show any significant improvement

Compound: CCCN1C[C@@H](O)[C@@H](O)[C@@H](O)[C@H]1CC(C)=O [Compound 5a, (1R, 2S, 3R, 4R)-1-Acetylmethyl-2,3,4-trihydroxyl-N-n-propylpiperidine]
- inhibition of α-glucosidase, in words (α-glucosidase from yeast): no improvement of α-glucosidase inhibition

Compound: CC(=O)CC1C(O)C(O)C(O)CN1Cc1ccc(O)cc1 [Compound 5λ, (1R, 2S, 3R, 4R)-1-Acetylmethyl-2,3,4-trihydroxyl-N-4-hydroxylbenzylpiperidine]
- IC50 (α-glucosidase from yeast): 7.4 µM
- inhibition of α-glucosidase, in words (α-glucosidase from yeast): improved the enzyme inhibition

Compound: COc1ccc(CN2C[C@@H](O)[C@@H](O)[C@@H](O)[C@H]2CC(C)=O)cc1 [Compound 5o, (1R, 2S, 3R, 4R)-1-Acetylmethyl-2,3,4-trihydroxyl-N-4-methoxylbenzylpiperidine]
- inhibition of α-glucosidase, in words (α-glucosidase from yeast): The same result was obtained

Compound: CC(=O)CC1C(O)C(O)C(O)CN1Cc1ccc([N+](=O)[O-])cc1 [Compound 5n, (1R, 2S, 3R, 4R)-1-Acetylmethyl-2,3,4-trihydroxyl-N-4-nitrobenzylpiperidine]
- inhibition of α-glucosidase, in words (α-glucosidase from yeast): The same result was obtained

Compound: CC(=O)C[C@@H]1[C@H](O)[C@H](O)[C@H](O)CN1Cc1ccc(O)c(Br)c1 [Compound 6b, (1R, 2S, 3R, 4R)-1-Acetylmethyl-2,3,4-trihydroxyl-N-3-bromo-4-hydroxylbenzylpiperidine]
- inhibition potency compared with compound 5λ, in words (α-glucosidase from yeast): slightly improve the inhibition potency
- IC50 (α-glucosidase from yeast; [1]): 5.3 µM

Compound: CC(=O)CC1C(O)C(O)C(O)CN1Cc1cccc(O)c1 [Compound 5π, (1R, 2S, 3R, 4R)-1-Acetylmethyl-2,3,4-trihydroxyl-N-3-hydroxylbenzylpiperidine]
- IC50 (α-glucosidase from yeast): > 20 µM
- inhibition of α-glucosidase, in words (α-glucosidase from yeast): reduced the inhibitory potency significantly

Compound: CC(=O)CC1C(O)C(O)C(O)CN1Cc1cccc(C)c1 [Compound 5k, (1R, 2S, 3R, 4R)-1-Acetylmethyl-2,3,4-trihydroxyl-N-3-methylbenzylpiperidine]
- inhibition of α-glucosidase, in words (α-glucosidase from yeast): The same result was obtained

Compound: CC(=O)CC1C(O)C(O)C(O)CN1Cc1ccc(C)cc1 [Compound 5j, (1R, 2S, 3R, 4R)-1-Acetylmethyl-2,3,4-trihydroxyl-N-4-methylbenzylpiperidine]
- inhibition of α-glucosidase, in words (α-glucosidase from yeast): The same result was obtained

Compound: CC(=O)C[C@@H]1[C@H](O)[C@H](O)[C@H](O)CN1Cc1ccc(O)cc1Cl [Compound 6d, (1R, 2S, 3R, 4R)-1-Acetylmethyl-2,3,4-trihydroxyl-N-2-chloro-4-hydroxylbenzylpiperidine]
- inhibition compared with positive control Acarbose, in words (α-glucosidase from yeast): equivalent to positive control Acarbose
- IC50 (α-glucosidase from yeast; [1]): 2.4 µM

Compound: CC(=O)C[C@@H]1[C@H](O)[C@H](O)[C@H](O)CN1Cc1cc(Br)c(O)c(Br)c1 [Compound 6i, (1R, 2S, 3R, 4R)-1-Acetylmethyl-2,3,4-trihydroxyl-N-3,5-dibromo-4-hydroxylbenzylpiperidine]
- inhibition potency compared with compound 5λ, in words (α-glucosidase from yeast): slightly improve the inhibition potency
- IC50 (α-glucosidase from yeast; [1]): 5.5 µM

Compound: CC(=O)CC1C(O)C(O)C(O)CN1Cc1ccc(C(F)(F)F)cc1 [Compound 5l, (1R, 2S, 3R, 4R)-1-Acetylmethyl-2,3,4-trihydroxyl-N-4-trifluoromethylbenzylpiperidine]
- inhibition of α-glucosidase, in words (α-glucosidase from yeast): The same result was obtained

Compound: CC(=O)C[C@@H]1[C@H](O)[C@H](O)[C@H](O)CN1Cc1ccc(O)c(F)c1 [Compound 6c, (1R, 2S, 3R, 4R)-1-Acetylmethyl-2,3,4-trihydroxyl-N-3-fluoro-4-hydroxylbenzylpiperidine]
- inhibition potency compared with compound 5λ, in words (α-glucosidase from yeast): slightly improve the inhibition potency
- IC50 (α-glucosidase from yeast; [1]): 3.3 µM
